Data set [1] can be described thus: pharmacokinetics in blood plasma after oral administration in Wistar rats. As to conditions: rat, in vivo, 21 mg/kg.
Data set [2] is described as follows: pharmacokinetics in rabbits at single administration. As to conditions: 50 mg/kg. It counts as in vivo.
Data set [3] is described as follows: distribution across organs and tissues in rats. It counts as in vivo. How it is done:
When the 4-methylbenzenesulfonic acid and Compound 1 salt hydrate is administered intragastrically at dosages 30 to 200 mg/kg, the Compound 1 concentration in rat blood plasma increases in proportion to the dose. High concentrations of the Compound 1 was found almost in all the tissues studied and reached maximum at 2 to 4 hours after 4-methylbenzenesulfonic acid and Compound 1 salt hydrate administration.

A short description of data set [4]: pharmacokinetics in blood plasma after oral administration in Wistar rats. As to conditions: rat, in vivo. How it is done: At the first stage, pharmacokinetics of the Compound 1 free base was studied after oral administration in Wistar rats at dosage of 30 mg/kg.
Pharmacokinetics of several Compound 1 salt forms was studied after oral administration in Wistar rats at a dose of 37 mg/kg (30 mg/kg equivalent to a free base).

The subject of data set [5] is Sprague-Dawley rat models of osteoarthritis induced by intra-articular introduction of sodium iodoacetate. Kind of data set: mechanical allodynia test with von Frey filaments in osteoarthritis induced by sodium iodoacetate. In kind it is in vivo. The protocol: The intra-articular introduction of aerobic glycolysis inhibitor (sodium iodoacetate) results in death of chondrocytes and acute inflammatory reaction in a synovial cavity. In absence of treatment, at day 10 from the pathology induction an onset of chronic pain is observed due to cartilage destruction and development of chronic inflammation in particular cases [J Musculoskel Neuron Interact 2001; 1(4):363-376]. Extent of osteoarthritis development in rats was evaluated by comparison of extremity pain sensitivity threshold after the introduction of sodium iodoacetate versus background measurements taken before the pathology induction. The threshold of the pain sensitivity was evaluated by mechanical allodynia test using von Frey filaments (see Table 8).
For the purposes of the study, rat males weighing 150 to 200 g were selected. All the animals underwent acclimatization for 14 days. The animals were housed in a polycarbonate cages of 3H type manufactured by Charles River laboratories Inc according to COST R 53434-2009. 12-hours lighting regimen was maintained. The animals had access to food and water ad libitum. The pathology was induced by introduction of 50 μl solution containing 2 mg of sodium iodoacetate into a synovial cavity of the animal knee joints. Tactile allodynia induced by a mechanical irritation was evaluated using von Frey filaments weighing 0.06 to 23.96 g. The test was repeated five times for each filament at intervals of 1 to 2 s. The sensitivity threshold was considered as a minimum reaction threshold provoking paw withdrawal in one of five repeats.

For a further data set, the system named is mature human osteoclasts. Kind of data set: osteoclast-mediated resorption of mineralized matrix. In kind it is cell-based. As to conditions: 1.1 μM and 10 μM, 48 hours. How it is done:
The study was carried out following the method below: CD15+ monocytes (osteoclast precursor cells) were cultivated for 3 days in a proliferation medium (Igla α-modified minimum essential medium/fetal calf serum (aMEM/FCS), 10% with 25 ng/ml of macrophage colony-stimulating factor (M-CSF)). During this stage M-CSF promoted proliferation and expression of a receptor activator of nuclear factor KB (RANK, cappa-B, type I membrane protein). The proliferation medium was removed and cells were differentiated in a differentiation medium (aMEM/FCS-10% with 100 ng/ml of RANKL and 25 ng/ml of M-CSF). When mature osteoclasts were detected in the culture (day 4 of the study), the cells were collected and re-inoculated into a 96-well plate coated with a synthetic mineralized matrix. Cultivation continued for 48 hours (at presence of the studied compounds) to evaluate osteoclast resorption. Then number of mature osteoclasts and the resorption degree were evaluated. An effect of 4-methylbenzenesulfonic acid and Compound 1 salt concentration on concentration and resorption degree of mature osteoclasts was evaluated in comparison with control samples ([…] control, 0.3% DMSO solvent) and reference inhibitors, i.e., saracatinib and bosutinib (see FIG. 18).

The target of another data set is Lyn (Homo sapiens, UniProt P07948). Kind of data set: human kinase enzymatic activity in vitro. In kind it is biochemical. As to conditions: 0.5 μmol/l.
Another data set has as its target Hck (Homo sapiens, UniProt P08631). Kind of data set: human kinase enzymatic activity in vitro. The following applies: 0.5 μmol/l. In kind it is biochemical.
Data set [6] has as its system chondrocytes from knee joint cartilage of young rats. Kind of data set: IL-1β-induced hypertrophic changes in chondrocytes (aggrecan expression). It counts as cell-based, rats (Sprague Dawley). The following applies: induced hypertrophic changes in chondrocytes. How it is done:
The study was carried out following the method below: chondrocytes were isolated from a knee joint cartilage of young rats (aged 3 weeks, Sprague Dawley line). The isolated chondrocytes in a cultural medium (Dulbecco's modified Igla minimum essential medium/fetal calf serum (DMEM/FCS), 10%, 4-(2-hydroxyethyl)-1-piperazine ethanesulfonic acid (HEPES), 25 mM) was stored frozen at −80° C. The obtained chondrocytes were unfrozen a day before the experiment, inoculated into 12-well plates and cultured as a monolayer during 24 hours. After 24 hours of incubation IL-1β-induced activation of chondrocytes and treatment with the studied compounds was started and continued for 3 days.

For the next data set, the system named is Src-kinase family. Kind of data set: human kinase enzymatic activity in vitro. In kind it is biochemical. The following applies: 0.5 μmol/l. The protocol:
(§1) The Compound 1 effect on the human recombinant tyrosine c-Src kinase was measured as follows: a peptide substrate was dissolved in a reaction buffer ad 0.2 mg/ml concentration. A solution of recombinant c-Src kinase was added to 2 nM concentration and the studied compound to the required concentration (within the range of 1 nM to 10 μM) was added. A solution of ^33P-ATP was added to 10 μM concentration (final specific activity of the solution is 0.01 μCi). After 120 minutes of incubation, the reaction mixture was applied on ion-exchange paper, which was rinsed with a plenty of phosphoric acid. A reaction extent was determined based on radioactivity of the reaction products.

A further data set concerns the target Fgr (Homo sapiens, UniProt P09769). Kind of data set: human kinase enzymatic activity in vitro. The following applies: 0.5 μmol/l. It counts as biochemical.
The next data set has as its target Fyn (Homo sapiens, UniProt P06241). Kind of data set: human kinase enzymatic activity in vitro. It counts as biochemical. The following applies: 0.5 μmol/l.
Another data set has as its target Syk kinase (Homo sapiens, UniProt P43405). Kind of data set: human kinase enzymatic activity in vitro. It counts as biochemical.
Data set [7] deals with human recombinant tyrosine c-Src kinase (Homo sapiens, UniProt P12931). Kind of data set: human kinase enzymatic activity in vitro (33P-ATP, peptide substrate). It counts as biochemical. The protocol: as §1
The next data set deals with Lck (Homo sapiens, UniProt P06239). Kind of data set: human kinase enzymatic activity in vitro. As to conditions: 0.5 μmol/l. It counts as biochemical.
The next data set has as its target Blk (Homo sapiens, UniProt P51451). Kind of data set: human kinase enzymatic activity in vitro. It counts as biochemical. The following applies: 0.5 μmol/l.
The target of a further data set is Yes (Homo sapiens, UniProt P07947). Kind of data set: human kinase enzymatic activity in vitro. In kind it is biochemical. The following applies: 0.5 μmol/l.
Another data set deals with Frk (Homo sapiens, UniProt P42685). Kind of data set: human kinase enzymatic activity in vitro. The following applies: 0.5 μmol/l. It counts as biochemical.

Each structure is given as a SMILES string. Where only a bound is given, the exact number is not on record here.

Sequence of human recombinant tyrosine c-Src kinase (P12931 whole entry): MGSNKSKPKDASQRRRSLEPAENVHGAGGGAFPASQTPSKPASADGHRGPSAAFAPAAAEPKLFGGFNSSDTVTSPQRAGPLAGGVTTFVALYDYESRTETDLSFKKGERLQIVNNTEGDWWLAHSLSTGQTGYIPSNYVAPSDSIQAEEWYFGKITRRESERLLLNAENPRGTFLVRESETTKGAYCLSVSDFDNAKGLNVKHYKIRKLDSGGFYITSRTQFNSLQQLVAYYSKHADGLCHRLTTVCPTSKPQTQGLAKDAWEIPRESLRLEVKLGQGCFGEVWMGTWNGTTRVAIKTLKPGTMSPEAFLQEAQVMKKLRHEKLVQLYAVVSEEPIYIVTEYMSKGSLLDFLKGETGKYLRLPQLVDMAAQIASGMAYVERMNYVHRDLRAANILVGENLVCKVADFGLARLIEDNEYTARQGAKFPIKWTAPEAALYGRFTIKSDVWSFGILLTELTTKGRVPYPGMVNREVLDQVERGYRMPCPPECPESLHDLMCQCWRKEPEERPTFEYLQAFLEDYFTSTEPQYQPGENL
Sequence of Lyn (P07948 whole entry): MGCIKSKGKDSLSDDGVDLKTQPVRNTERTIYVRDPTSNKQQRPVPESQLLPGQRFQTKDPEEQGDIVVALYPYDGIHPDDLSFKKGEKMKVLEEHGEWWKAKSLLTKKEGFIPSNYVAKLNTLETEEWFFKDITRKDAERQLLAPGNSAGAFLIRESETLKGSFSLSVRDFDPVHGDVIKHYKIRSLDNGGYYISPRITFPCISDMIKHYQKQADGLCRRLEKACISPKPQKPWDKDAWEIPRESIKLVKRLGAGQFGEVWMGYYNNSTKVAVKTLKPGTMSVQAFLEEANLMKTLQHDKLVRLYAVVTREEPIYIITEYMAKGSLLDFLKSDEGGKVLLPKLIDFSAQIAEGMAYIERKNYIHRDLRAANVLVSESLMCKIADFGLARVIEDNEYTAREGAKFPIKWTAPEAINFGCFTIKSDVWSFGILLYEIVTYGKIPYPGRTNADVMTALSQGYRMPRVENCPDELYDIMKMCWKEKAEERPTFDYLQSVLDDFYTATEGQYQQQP
Sequence of Fyn (P06241 whole entry): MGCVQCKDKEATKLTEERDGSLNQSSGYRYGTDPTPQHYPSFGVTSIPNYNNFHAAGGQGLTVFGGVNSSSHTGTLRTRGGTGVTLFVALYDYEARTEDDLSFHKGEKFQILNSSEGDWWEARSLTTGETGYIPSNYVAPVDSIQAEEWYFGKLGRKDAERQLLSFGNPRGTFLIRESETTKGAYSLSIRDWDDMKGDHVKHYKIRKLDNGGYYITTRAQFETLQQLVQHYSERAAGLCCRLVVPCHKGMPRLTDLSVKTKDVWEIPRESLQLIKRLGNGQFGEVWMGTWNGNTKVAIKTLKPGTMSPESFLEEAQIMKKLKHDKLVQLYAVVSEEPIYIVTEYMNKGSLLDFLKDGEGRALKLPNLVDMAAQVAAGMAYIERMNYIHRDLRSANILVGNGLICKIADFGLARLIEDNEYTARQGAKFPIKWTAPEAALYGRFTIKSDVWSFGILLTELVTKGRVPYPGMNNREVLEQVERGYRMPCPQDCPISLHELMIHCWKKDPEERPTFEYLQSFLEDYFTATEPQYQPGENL
Sequence of Yes (P07947 whole entry): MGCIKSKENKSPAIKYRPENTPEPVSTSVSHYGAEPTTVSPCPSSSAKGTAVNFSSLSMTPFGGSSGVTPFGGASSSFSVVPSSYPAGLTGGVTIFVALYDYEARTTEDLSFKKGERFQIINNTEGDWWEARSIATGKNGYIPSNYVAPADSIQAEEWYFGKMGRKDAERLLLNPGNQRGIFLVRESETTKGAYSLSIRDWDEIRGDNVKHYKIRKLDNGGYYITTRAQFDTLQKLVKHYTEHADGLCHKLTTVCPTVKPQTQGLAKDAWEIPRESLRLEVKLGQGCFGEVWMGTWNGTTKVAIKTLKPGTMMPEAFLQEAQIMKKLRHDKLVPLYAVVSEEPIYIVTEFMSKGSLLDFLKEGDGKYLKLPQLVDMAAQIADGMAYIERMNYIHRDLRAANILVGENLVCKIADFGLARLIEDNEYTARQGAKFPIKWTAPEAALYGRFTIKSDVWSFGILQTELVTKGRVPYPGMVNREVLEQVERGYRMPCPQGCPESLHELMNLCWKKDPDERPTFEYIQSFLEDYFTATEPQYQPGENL
Sequence of Lck (P06239 whole entry): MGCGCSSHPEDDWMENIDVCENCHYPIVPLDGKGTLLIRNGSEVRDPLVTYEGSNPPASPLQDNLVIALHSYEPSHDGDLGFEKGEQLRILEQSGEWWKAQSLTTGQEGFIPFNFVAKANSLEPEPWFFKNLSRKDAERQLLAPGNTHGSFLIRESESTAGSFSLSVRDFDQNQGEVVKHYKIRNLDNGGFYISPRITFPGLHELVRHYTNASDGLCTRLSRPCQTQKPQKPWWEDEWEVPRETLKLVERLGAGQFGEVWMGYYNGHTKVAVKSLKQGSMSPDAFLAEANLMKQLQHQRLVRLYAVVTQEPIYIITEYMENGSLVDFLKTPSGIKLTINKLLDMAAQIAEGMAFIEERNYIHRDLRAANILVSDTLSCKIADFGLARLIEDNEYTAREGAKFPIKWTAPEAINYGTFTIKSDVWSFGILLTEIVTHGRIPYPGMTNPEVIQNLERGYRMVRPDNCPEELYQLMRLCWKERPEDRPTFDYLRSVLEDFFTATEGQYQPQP
Sequence of Blk (P51451 whole entry): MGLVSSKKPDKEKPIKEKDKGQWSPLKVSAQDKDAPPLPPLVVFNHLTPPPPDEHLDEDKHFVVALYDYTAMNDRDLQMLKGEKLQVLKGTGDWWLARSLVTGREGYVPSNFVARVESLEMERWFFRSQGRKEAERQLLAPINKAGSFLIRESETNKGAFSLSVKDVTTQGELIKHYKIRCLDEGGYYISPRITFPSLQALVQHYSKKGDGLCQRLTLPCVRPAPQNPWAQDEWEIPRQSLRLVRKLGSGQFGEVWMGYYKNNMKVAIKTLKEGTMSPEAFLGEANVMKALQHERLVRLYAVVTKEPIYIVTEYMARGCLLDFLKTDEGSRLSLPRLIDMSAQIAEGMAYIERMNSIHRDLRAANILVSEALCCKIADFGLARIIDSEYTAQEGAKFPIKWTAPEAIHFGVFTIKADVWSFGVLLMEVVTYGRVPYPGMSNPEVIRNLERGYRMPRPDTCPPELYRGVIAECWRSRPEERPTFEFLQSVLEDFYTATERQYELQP
Sequence of Fgr (P09769 whole entry): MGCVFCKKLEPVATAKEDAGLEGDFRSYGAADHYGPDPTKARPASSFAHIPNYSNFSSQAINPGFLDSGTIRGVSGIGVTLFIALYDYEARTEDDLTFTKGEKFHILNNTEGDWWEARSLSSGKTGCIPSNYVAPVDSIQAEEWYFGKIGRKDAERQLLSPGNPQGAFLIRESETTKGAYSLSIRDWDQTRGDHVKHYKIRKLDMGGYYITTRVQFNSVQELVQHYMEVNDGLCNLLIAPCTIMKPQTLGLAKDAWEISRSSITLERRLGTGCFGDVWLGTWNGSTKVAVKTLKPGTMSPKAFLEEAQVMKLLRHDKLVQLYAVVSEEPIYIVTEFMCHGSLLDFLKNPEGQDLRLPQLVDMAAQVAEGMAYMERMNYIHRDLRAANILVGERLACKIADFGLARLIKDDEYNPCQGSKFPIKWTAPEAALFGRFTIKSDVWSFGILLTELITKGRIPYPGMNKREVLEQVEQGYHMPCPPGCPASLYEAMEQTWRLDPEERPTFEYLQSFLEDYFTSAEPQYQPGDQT
Sequence of Hck (P08631 whole entry): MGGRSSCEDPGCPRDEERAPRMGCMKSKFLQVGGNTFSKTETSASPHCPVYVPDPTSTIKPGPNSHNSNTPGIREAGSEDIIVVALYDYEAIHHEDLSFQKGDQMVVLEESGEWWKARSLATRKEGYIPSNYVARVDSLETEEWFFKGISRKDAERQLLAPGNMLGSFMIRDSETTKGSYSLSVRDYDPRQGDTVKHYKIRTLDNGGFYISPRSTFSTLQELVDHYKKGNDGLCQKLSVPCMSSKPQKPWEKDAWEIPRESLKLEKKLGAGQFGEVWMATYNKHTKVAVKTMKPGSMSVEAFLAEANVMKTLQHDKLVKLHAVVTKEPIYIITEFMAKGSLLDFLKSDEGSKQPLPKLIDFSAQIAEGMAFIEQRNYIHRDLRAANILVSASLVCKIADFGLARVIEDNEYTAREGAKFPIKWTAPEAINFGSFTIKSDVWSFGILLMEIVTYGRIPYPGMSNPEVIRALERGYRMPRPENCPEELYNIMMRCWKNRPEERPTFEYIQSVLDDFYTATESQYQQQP
Sequence of Frk (P42685 whole entry): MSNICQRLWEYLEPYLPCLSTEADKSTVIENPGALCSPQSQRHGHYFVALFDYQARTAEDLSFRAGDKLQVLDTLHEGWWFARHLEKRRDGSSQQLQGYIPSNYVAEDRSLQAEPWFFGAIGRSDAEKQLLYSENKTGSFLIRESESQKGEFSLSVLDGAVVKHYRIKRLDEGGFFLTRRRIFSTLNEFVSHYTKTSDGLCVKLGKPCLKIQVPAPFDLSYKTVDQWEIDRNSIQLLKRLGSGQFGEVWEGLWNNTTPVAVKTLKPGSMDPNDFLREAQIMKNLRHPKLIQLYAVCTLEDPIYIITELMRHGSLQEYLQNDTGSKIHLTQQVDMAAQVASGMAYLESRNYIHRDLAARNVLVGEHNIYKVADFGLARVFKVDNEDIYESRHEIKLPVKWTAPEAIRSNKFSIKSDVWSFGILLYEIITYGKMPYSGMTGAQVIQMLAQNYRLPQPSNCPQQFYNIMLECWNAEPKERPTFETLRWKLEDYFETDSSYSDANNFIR

By Cmax is commonly meant the peak of the concentration-time curve. On to `COc1cc(Nc2ncnc(Nc3ccc4c(n3)NC(=O)C(C)(C)O4)n2)cc(OC)c1OC.Cc1ccc(S(=O)(=O)O)cc1.O` [monohydrate of 4-methylbenzenesulfonic acid and 2,2-dimethyl-6-((4-((3,4,5-trimethoxyphenyl)amino)-1,3,5-triazine-2-yl)amino)-2H-pyrido[3,2-b][1,4]oxazine-3(4H)-one base], for which the Cmax in data set [1] came out at 416 ng/mL. The elimination half-time result in data set [2] is on record as “more than 7 hours”. In addition, in data set [3], the “tissue with lowest concentration” value was “lowest concentration of the Compound 1 was registered in muscles”. Also, the “daily average concentration in bone and cartilage tissues versus daily average concentration in blood plasma” value in data set [3] (intragastric) is on record as “more than three times”. Also, the “time of reaching maximum concentration in blood” value in [4] was 1.1 to 1.3 h. Also, the “Reaction threshold value, % of control” value in data set [5] (100 mg/kg intragastric, days 0-28 (daily), day 14 from pathology induction) is 106 % of control; in data set [5] (100 mg/kg intragastric, days 0-28 (daily), day 21) it was 80 % of control; in data set [5] (100 mg/kg intragastric, days 0-28 (daily), day 28), 106 % of control; in data set [5] (100 mg/kg intragastric, days 7-28 (daily), day 14), 70 % of control; in data set [5] (100 mg/kg intragastric, days 7-28 (daily), day 21) it was 75 % of control; in [5] (100 mg/kg intragastric, days 7-28 (daily), day 28), 73 % of control. For the same compound, the “Reaction threshold value, % of control” value in data set [5] (500 mg/kg intragastric, days 0-28 (daily), day 14) is 114 % of control; in [5] (500 mg/kg intragastric, days 0-28 (daily), day 21), 106 % of control; in data set [5] (500 mg/kg intragastric, days 0-28 (daily), day 28), 107 % of control; in data set [5] (500 mg/kg intragastric, days 7-28 (daily), day 14), 76 % of control; in data set [5] (500 mg/kg intragastric, days 7-28 (daily), day 21) it was 91 % of control; in [5] (500 mg/kg intragastric, days 7-28 (daily), day 28), 118 % of control. Also, the mechanical allodynia onset entry in data set [5] (100 and 500 mg/kg from day of pathology induction, 500 mg/kg from the seventh day) is reported as “Total arrest of mechanical allodynia onset”. Besides, the “effect on osteoclast-mediated resorption of the mineralized matrix” value in the data set on mature human osteoclasts is given as “profound statistically significant inhibitory effect”.

Broadly, the inhibition is the relative decrease from the control value, in per cent. By IC50 is commonly meant the concentration at which inhibition is half-maximal. For the compound `COc1cc(Nc2ncnc(Nc3ccc4c(n3)NC(=O)C(C)(C)O4)n2)cc(OC)c1OC.Cc1ccc(S(=O)(=O)O)cc1` [salt of 4-methylbenzenesulfonic acid and 2,2-dimethyl-6-((4-((3,4,5-trimethoxyphenyl)amino)-1,3,5-triazine-2-yl)amino)-2H-pyrido[3,2-b][1,4]oxazine-3(4H)-one base], the inhibition at 0.5 µM (at Lyn; at Hck; against Fgr; at Fyn; against Syk kinase (0.5 μmol/l); in [7] (0.5 μmol/l)) was more than 50% each time. Also, the inhibition at 0.5 µM against Lck, against Blk, against Yes and against Frk was more than 50% throughout. Besides, the remaining activity at 0.5 µM on Lyn (read-out: residual activity) worked out at 13%; at Hck (read-out: residual activity), 25%; at Fgr (read-out: residual activity) it was 23%; on Fyn (read-out: residual activity), 25%; in data set [7] (0.5 μmol/l, read-out: residual activity) it was 6%; on Lck (read-out: residual activity), 12%. In addition, the remaining activity at 0.5 µM on Blk (read-out: residual activity) was determined as 20%; at Yes (read-out: residual activity) it was 12%. Also, the “increase of aggrecan production” value in data set [6] is on record as “more than four-time increase”. The “residual Src-kinase family activity” value in the data set on Src-kinase family was ≤ 25 % of control values. Also, the IC50 at Syk kinase stood at 40 nM; in data set [7] it was 14 nM.
